Read-outs that look alike come from different tables or passages of the source.

The source of these data is patent US20250188075A1, “SUBSTITUTED HETEROCYCLIC CSNK1 INHIBITORS” (The Broad Institute, Inc., priority 2022, published 2025).

One test concerns the target human CSNK1A1 (Homo sapiens (Human), UniProt P48729). The test is described as follows: CSNK1A1 high ATP assay (ADP-Glo, 1 mM ATP). It is filed as biochemical. Particulars: median, read-out: CSNK1A1 High ATP assay IC50 [mol/l] (median). The protocol: CSNK1A1-inhibitory activity of compounds of the present invention in presence of 1 mM adenosine-tri-phosphate (ATP) was quantified employing the CSNK1A1-high-ATP-assay as described in the following paragraphs. In essence, the enzyme activity is measured by quantification of the adenosine-di-phosphate (ADP), which is generated as a co-product of the enzyme reaction, via the “ADP-Glo™ Kinase Assay” kit from the company Promega. This detection system works as follows: In a first step the ATP not consumed in the kinase reaction is quantitatively converted to CAMP employing an adenylate cyclase (“ADP-Glo-reagent”), then the adenylate cyclase is stopped and the ADP generated in the kinase reaction converted to ATP which generates in a luciferase-based reaction a glow-luminescence signal (“Kinase Detection Reagent”).
Recombinant fusion protein of N-terminal Glutathion-S-Transferase (GST) and full-length human CSNK1A1, expressed by baculovirus infected insect cells and purified via Glutathion affinity chromatography, was purchased from Life Technologies (product no. PV4174) and used as enzyme. As substrate for the kinase reaction the biotinylated peptide biotin-Ahx-KRRRAL-pS-VASLPGL (C-terminus in amide form) was used which can be purchased e.g. from the company Biosyntan (Berlin-Buch, Germany).
For the assay 50 nl of a 100 fold concentrated solution of the test compound in DMSO was pipetted into a white low volume 384-well microtiter plate (Greiner Bio-One, Frickenhausen, Germany), 2 μL of a solution of CSNK1A1 in aqueous assay buffer [50 mM HEPES pH 7.5, 10% (v/v) glycerol, 10 mM MgCl2, 50 mM NaCl, 1 mM dithiothreitol, 0.01% (w/v) bovine serum albumin, 0.01% (v/v) Triton X-100] were added and the mixture was incubated for 15 min at 22° C. to allow pre-binding of the test compounds to the enzyme before the start of the kinase reaction. Then the kinase reaction was started by the addition of 3 μL of a solution of ATP (1.67 mM=>final conc. in the 5 μL assay volume is 1 mM) and peptide substrate (167 μM=>final conc. in the 5 μL assay volume is 100 μM) in assay buffer and the resulting mixture was incubated for a reaction time of 30 min at 22° C. The concentration of CSNK1A1 was adjusted depending of the activity of the enzyme lot and was chosen appropriate to have the assay in the linear range, a typical concentration is about 0.4 ng/μL. The reaction was stopped by the addition of 2.5 μL of “ADP-Glo-reagent” (1:1.5 fold diluted with water) and the resulting mixture was incubated at 22° C. for 1 h to convert the ATP not consumed in the kinase reaction completely to CAMP. Subsequently 2.5 μL of the “kinase detection reagent” (1.2 fold more concentrated than recommended by the producer) were added, the resulting mixture was incubated at 22° C. for 1 h and then the luminescence measured with a suitable measurement instrument (e.g. Viewlux™ from Perkin-Elmer). The amount of emitted light was taken as a measure for the amount of ADP generated and thereby for the activity of the CSNK1A1.
The data were normalised (enzyme reaction without inhibitor=0% inhibition, all other assay components but no enzyme=100% inhibition).

Another test has as its system HT-29 cells. The test is described as follows: HT29 cell proliferation assay, CTG method. Particulars: HT-29, CTG, 96 h, median, read-out: 2D-PROLI HT-29 CTG 96 h, IC50 - [mol/l] (median). In kind it is cell-based. The protocol:
CELL PROLIFERATION ASSAY CTG METHOD, 384-well version: Day 1: plated 400 cells/30 μL/well in growth medium (DMEM/Ham's F12; (Biochrom; #FG 4815, mit stabilem Glutamin)+FCS (final: 10%); (Biochrom; #S 0415)) in 384-well black plates (Corning #3571). Plated sister wells in a separate plate for time zero determination. Incubated all plates overnight at 37° C. Day 2: added test compounds in serial dilutions using the HP D300 Digital Dispenser and incubated at 37° C. for 96 h. Measured time zero plate: add 30 μL/well CTG solution (Promega CellTiter-Glo solution (catalog #G7573)) to wells in time zero plate; incubated for 2 minutes in a orbital shaker to induce cell lysis; allowed the plate to incubate at room temperature for additional 10 min to stabilize luminescent signal and read luminescence on PheraStar (rapid mode—0.02 sec/well; GAIN 3000). Day 6: Added 30 μL/well CTG solution to all test wells, incubated for 2 minutes in a orbital shaker to induce cell lysis; allowed the plate to incubate at room temperature for additional 10 min to stabilize luminescent signal and read luminescence on PheraStar (rapid mode—0.02 sec/well; GAIN 3000 Proliferation IC50s were calculated using the DRC application in ShiNy Analysis Platform-SNAP.”

The test system of a further test is HCT 116 cells. Nature of the test: HCT 116 cell proliferation assay, CTG. Particulars: HCT 116, CTG, 96 h, median, read-out: 2D-PROLI HCT 116 CTG 96 h, IC50 - [mol/l] (median). In kind it is cell-based. The method, then:
400 HCT 116 cells/30 μL/well were plated in growth medium (DMEM/Ham's F12, 10% FCS) in a 384-well plate (CORNING #3571) at day 1. Reference plate was seeded for time zero determination. All plates were incubated overnight 37° C. Day 2: test compound was added in 7-step dilution and incubate at 37° C. for 96 h. Day 2: time zero plate: 30 μL/well CTG solution (Promega Cell Titer Glo solution; catalog #G755B and G756B) were added, incubated for 30 minutes, read luminescence on PheraStar. Day 6: compound treated plates: 30 μL/well CTG solution (Promega Cell Titer Glo solution; catalog #G755B and G756B) were added, incubated for 30 minutes, luminescence was read on PheraStar. Proliferation was calculated after subtracting time zero luminescence values from day 6 values and comparing to untreated wells. The IC50 values were determined using the four parameter fit.

Sequence of human CSNK1A1 (P48729 whole entry): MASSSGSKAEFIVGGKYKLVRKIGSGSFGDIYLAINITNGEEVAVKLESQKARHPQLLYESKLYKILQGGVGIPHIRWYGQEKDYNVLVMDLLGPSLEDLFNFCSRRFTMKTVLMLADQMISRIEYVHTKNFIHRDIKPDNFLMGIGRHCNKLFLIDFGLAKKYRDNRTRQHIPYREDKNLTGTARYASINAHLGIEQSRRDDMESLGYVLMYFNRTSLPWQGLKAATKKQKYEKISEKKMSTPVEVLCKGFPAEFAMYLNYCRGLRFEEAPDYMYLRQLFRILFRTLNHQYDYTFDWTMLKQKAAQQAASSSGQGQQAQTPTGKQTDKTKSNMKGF

For the compound `Cn1nc(CC(=O)Nc2cc(-c3[nH]c4cccnc4c3-c3ccccn3)ccn2)cc1C1CC1` [Example 29, 2-(5-cyclopropyl-1-methyl-pyrazol-3-yl)-N-[4-[3-(2-pyridyl)-^1H-pyrrolo[3,2-b]pyridin-2-yl]-2-pyridyl]acetamide], the figures for the IC50 at human CSNK1A1, in the test with HT-29 cells (Homo sapiens) and in the test on HCT 116 cells (Homo sapiens) were 0.188 µM, 0.34 µM and 0.518 µM, respectively.

For the compound `Cc1nc(CC(=O)Nc2cc(-c3[nH]c4cccnc4c3-c3ccccn3)ccn2)cs1` [Example 3, 2-(2-methylthiazol-4-yl)-N-[4-[3-(2-pyridyl)-^1H-pyrrolo[3,2-b]pyridin-2-yl]-2-pyridyl]acetamide], the IC50 at human CSNK1A1 stood at 0.0308 µM; in the test with HT-29 cells (Homo sapiens), 0.445 µM; in the test with HCT 116 cells (Homo sapiens), 0.359 µM.

`Cn1nc(CC(=O)Nc2cc(-c3[nH]c4cccnc4c3-c3ccccn3)ccn2)cc1C(F)(F)F` [Example 21, 2-[1-methyl-5-(trifluoromethyl)pyrazol-3-yl]-N-[4-[3-(2-pyridyl)-^1H-pyrrolo[3,2-b]pyridin-2-yl]-2-pyridyl]acetamide]: the IC50 on human CSNK1A1 amounted to 0.0866 µM; with HT-29 cells (Homo sapiens), 0.222 µM; with HCT 116 cells (Homo sapiens), 0.362 µM.

In the case of `O=C(Cc1cc(C2CC2)on1)Nc1cc(-c2[nH]c3cccnc3c2-c2ccccn2)ccn1` [Example 27, 2-(5-cyclopropylisoxazol-3-yl)-N-[4-[3-(2-pyridyl)-^1H-pyrrolo[3,2-b]pyridin-2-yl]-2-pyridyl]acetamide], the IC50 on human CSNK1A1 amounted to 0.244 µM; with HT-29 cells (Homo sapiens), 0.338 µM; with HCT 116 cells (Homo sapiens), 0.489 µM.

As for `Cn1cnc(CC(=O)Nc2cc(-c3[nH]c4cccnc4c3-c3ccccn3)ccn2)c1` [Example 5, 2-(1-methylimidazol-4-yl)-N-[4-[3-(2-pyridyl)-^1H-pyrrolo[3,2-b]pyridin-2-yl]-2-pyridyl]acetamide], the values for the IC50 on human CSNK1A1, in the test on HT-29 cells (Homo sapiens) and with HCT 116 cells (Homo sapiens) were 0.589 µM, 3.42 µM and 2.79 µM, respectively.

As to `O=C(Nc1cc(-c2[nH]c3ccc(F)nc3c2-c2ccccn2)ccn1)[C@@H](CC(F)F)c1ccc(F)cc1` [Example C2, reference compound], the IC50 on human CSNK1A1 was determined as 0.00527 µM; in the test with HT-29 cells, 0.0888 µM; in the test with HCT 116 cells, 0.184 µM.

In the case of `Cn1cc(CC(=O)Nc2cc(-c3[nH]c4cccnc4c3-c3ccccn3)ccn2)cn1` [Example 2, 2-(1-methylpyrazol-4-yl)-N-[4-[3-(2-pyridyl)-^1H-pyrrolo[3,2-b]pyridin-2-yl]-2-pyridyl]acetamide], the IC50 at human CSNK1A1 came to 0.0316 µM; in the test on HT-29 cells (Homo sapiens), 2.67 µM; in the test on HCT 116 cells (Homo sapiens), 3.6 µM.

Consider `Cn1cc(C(CC(F)F)C(=O)Nc2cc(-c3[nH]c4cccnc4c3-c3ccccn3)ccn2)cn1` (stereo not drawn) [Example 19, 4,4-difluoro-2-(1-methylpyrazol-4-yl)-N-[4-[3-(2-pyridyl)-^1H-pyrrolo[3,2-b]pyridin-2-yl]-2-pyridyl]butanamide], for which the IC50 at human CSNK1A1 is 0.291 µM; with HT-29 cells (Homo sapiens), 1.24 µM; with HCT 116 cells (Homo sapiens) it was 1.68 µM.

`O=C(Cc1ccn(CC(F)(F)F)n1)Nc1cc(-c2[nH]c3cccnc3c2-c2ccccn2)ccn1` [Example 20, N-[4-[3-(2-pyridyl)-^1H-pyrrolo[3,2-b]pyridin-2-yl]-2-pyridyl]-2-[1-(2,2,2-trifluoroethyl)pyrazol-3-yl]acetamide]: the IC50 at human CSNK1A1 was 0.0987 µM; with HT-29 cells (Homo sapiens), 0.341 µM; in the test on HCT 116 cells (Homo sapiens), 0.344 µM.

For the compound `Cc1cc(CC(=O)Nc2cc(-c3[nH]c4cccnc4c3-c3ccccn3)ccn2)no1` [Example 26, 2-(5-methylisoxazol-3-yl)-N-[4-[3-(2-pyridyl)-^1H-pyrrolo[3,2-b]pyridin-2-yl]-2-pyridyl]acetamide], the IC50 amounted to 0.0908 µM on human CSNK1A1, 0.466 µM with HT-29 cells (Homo sapiens) and 0.496 µM in the test on HCT 116 cells (Homo sapiens).

In the case of `O=C(Nc1cc(-c2[nH]c3nccnc3c2-c2ccccn2)ccn1)[C@@H](CC(F)F)c1ccc(F)cc1` [Example C1, reference compound], the IC50 is 0.0201 µM at human CSNK1A1, 0.206 µM in the test on HT-29 cells and 0.429 µM in the test with HCT 116 cells.

Regarding `O=C(Cc1cnc2ccccn12)Nc1cc(-c2[nH]c3cccnc3c2-c2ccccn2)ccn1` [Example 1, 2-imidazo[1,2-a]pyridin-3-yl-N-[4-[3-(2-pyridyl)-^1H-pyrrolo[3,2-b]pyridin-2-yl]-2-pyridyl]acetamide], the values for the IC50 at human CSNK1A1, with HT-29 cells (Homo sapiens) and in the test with HCT 116 cells (Homo sapiens) were 0.0385 µM, 2.67 µM and 3.87 µM, respectively.

Consider `Cc1nc(C)c(CC(=O)Nc2cc(-c3[nH]c4cccnc4c3-c3ccccn3)ccn2)s1` [Example 18, 2-(2,4-dimethylthiazol-5-yl)-N-[4-[3-(2-pyridyl)-^1H-pyrrolo[3,2-b]pyridin-2-yl]-2-pyridyl]acetamide], for which the IC50 is 0.0141 µM on human CSNK1A1, 0.22 µM in the test on HT-29 cells (Homo sapiens) and 0.179 µM in the test with HCT 116 cells (Homo sapiens).
